Experimental data taken from patent US20240217951A1, “PCSK9 INHIBITORS AND METHODS OF USE THEREOF” (AstraZeneca AB, priority 2022, published 2024).

Experiments:
[1] = target: GSK3β (Glycogen synthase kinase-3 beta) (Homo sapiens, UniProt P49841); assay: Assay 6 - GSK3β assay (ThermoFisher Z-Lyte); format: biochemical; conditions: geometric mean; ATP Conc: 10 μM; read-out: Assay 6 (GSK3β FRET-Z-Lyte CR) GMean IC50 (μM) ATP Conc: 10
Summary of the method: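 Z-Lyte fluorescence kinase assay with 0.22-0.92 ng GSK3β and 2 μM Ser/Thr 09 peptide in 50 mM HEPES pH 7.5, 10 mM MgCl2, 1 mM EGTA, 0.01% BRIJ-35. Kinase reaction 60 min at room temperature, then 60 min development. 10-point 3-fold titration from 10 μM in 1% DMSO, fitted to a sigmoidal dose-response curve.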

[2] = target: T1, potassium ion channel hERG (human Ether-á-go-go-Related Gene) (Homo sapiens, UniProt Q12809); assay: Assay 5 - hERG assay (SyncroPatch 384PE patch clamp, CHO cells); format: cell-based; conditions: geometric mean; CHO cells over-expressing hERG; read-out: Assay 5 (hERG Hu CHO IF EPh CR-Syncro) GMean IC50
T1 construct: expressed in transfected cells; host or cells: Chinese hamster ovary K1 (CHO)
T1 sequence (Q12809 whole entry): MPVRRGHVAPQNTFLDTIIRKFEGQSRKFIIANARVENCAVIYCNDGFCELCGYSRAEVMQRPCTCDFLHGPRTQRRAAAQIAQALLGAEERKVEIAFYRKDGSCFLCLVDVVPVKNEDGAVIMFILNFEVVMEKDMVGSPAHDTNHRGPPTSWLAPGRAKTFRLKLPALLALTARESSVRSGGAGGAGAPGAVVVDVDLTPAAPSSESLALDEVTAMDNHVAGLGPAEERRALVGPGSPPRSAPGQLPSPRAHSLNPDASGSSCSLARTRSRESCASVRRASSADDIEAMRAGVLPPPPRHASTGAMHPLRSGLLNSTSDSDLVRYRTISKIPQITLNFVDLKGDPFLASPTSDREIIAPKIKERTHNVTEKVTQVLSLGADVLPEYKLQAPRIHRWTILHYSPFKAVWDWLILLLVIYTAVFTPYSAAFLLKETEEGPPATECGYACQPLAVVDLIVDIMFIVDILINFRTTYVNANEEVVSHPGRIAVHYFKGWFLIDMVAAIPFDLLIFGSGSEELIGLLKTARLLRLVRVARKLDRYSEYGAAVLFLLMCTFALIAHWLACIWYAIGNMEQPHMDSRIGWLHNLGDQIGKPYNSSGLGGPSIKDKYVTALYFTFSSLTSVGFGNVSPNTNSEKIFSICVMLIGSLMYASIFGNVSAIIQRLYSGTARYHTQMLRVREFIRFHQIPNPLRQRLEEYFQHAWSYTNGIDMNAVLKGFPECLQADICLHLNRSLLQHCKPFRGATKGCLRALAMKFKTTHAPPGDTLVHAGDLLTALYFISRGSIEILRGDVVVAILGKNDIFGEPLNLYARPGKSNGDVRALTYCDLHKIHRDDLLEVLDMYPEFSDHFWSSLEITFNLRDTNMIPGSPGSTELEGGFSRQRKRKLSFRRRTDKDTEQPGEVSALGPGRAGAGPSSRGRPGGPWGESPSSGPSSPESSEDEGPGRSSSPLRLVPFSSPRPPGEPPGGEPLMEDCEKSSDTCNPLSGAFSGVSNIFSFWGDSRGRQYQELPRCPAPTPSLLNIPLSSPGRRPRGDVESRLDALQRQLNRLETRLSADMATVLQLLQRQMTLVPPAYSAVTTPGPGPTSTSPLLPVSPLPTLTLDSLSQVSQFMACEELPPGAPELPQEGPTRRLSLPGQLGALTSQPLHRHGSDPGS
Summary of the method: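 Automated high-throughput patch clamp on CHO-K1 cells overexpressing hERG at room temperature, KF/KCl internal with escin, NMDG-containing external at pH 7.4. Six-point cumulative compound addition, 0.33% DMSO final; wells kept only with seal >30 MΩ, Z′ >0.4 and current >0.2 nA.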

[3] = target: T2, human PCSK9 (Homo sapiens, UniProt Q8NBP7); assay: Assay 2 - Biophysical human PCSK9 assay (SPR, Biacore); format: binding; conditions: geometric mean; SPR at 30° C; read-out: Assay 2 (PCSK9 BIAcore DBA CR) GMean Kd
T2 construct: biotinylated human PCSK9 (31-692)-Avi-His6; His6 (C)
T2 sequence (Q8NBP7 31-692): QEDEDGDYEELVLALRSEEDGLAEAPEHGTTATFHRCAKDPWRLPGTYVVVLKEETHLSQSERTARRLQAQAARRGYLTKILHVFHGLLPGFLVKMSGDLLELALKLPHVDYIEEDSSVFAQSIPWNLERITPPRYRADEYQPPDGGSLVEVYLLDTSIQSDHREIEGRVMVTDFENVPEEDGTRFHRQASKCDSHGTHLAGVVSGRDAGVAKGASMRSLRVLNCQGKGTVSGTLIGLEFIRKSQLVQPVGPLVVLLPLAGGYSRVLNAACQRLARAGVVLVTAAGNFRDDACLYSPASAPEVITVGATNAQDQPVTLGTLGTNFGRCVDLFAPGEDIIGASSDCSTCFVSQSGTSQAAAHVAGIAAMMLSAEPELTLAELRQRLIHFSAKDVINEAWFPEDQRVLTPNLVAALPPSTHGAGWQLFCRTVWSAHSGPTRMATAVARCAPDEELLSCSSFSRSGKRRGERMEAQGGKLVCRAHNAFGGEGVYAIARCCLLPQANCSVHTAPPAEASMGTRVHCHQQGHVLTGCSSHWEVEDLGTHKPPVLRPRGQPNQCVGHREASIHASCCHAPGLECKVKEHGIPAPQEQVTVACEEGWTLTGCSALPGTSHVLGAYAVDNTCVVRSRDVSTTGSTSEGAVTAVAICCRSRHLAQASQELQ
Protocol: Assay 2—Biophysical Human PCSK9 Assay
The SPR binding experiments were performed on a Biacore S200 optical biosensor unit at 30° C. A Series S Sensor Chip SA that is designed to bind biotinylated molecules for interaction analysis in Biacore systems was equilibrated at room temperature prior to use. The running buffer for protein tethering and subsequent ligand binding experiments was 10 mM HEPES pH 7.4, 150 mM NaCl, 0.05% (v/v) Tween 20 pH 7.4.
For the surface tethering of PCSK9, biotinylated human PCSK9 (31-692)-Avi-His6 at a concentration of 0.5 mg/mL was used. Prior to the surface tethering, the surface was exposed to a solution of 50 mM NaOH, 500 mM NaCl via 3 consecutive injections of this solution with a contact time of 60 s and a flowrate of 10 μL min^−1 to remove non-conjugated streptavidin. The PCSK9 protein was diluted to a concentration of 20 μg/mL using running buffer and injected with a contact time of 180-300 s and a flowrate of 10 μL min^−1 over a single flow channel (typically flow channel 2 or flow channel 4) with the aim to achieve protein capture levels of >5000 response units (RU). Remaining biotin binding sites were blocked via 2 consecutive injections of a 10 μM D-biotin solution in running buffer with a contact time of 60 s and a flowrate of 10 μL min^−1 over all flow-channels. Flow-channels 1 and 3 typically served as a reference surface throughout the subsequent binding experiments.
The binding experiments were all performed at a flow rate of 30 PL min^−1 and by employing the method of single-cycle kinetics. This approach involves the sequential injection of a compound concentration series without regeneration steps. A contact time between 90-150 s was selected, which was followed by a 40 min dissociation phase to allow for a proper estimation of the dissociation rate constant. Test compounds were delivered in DMSO at a concentration of 10 mM and a digital dispenser HP D300 was used to set up the compound concentration series using 6 concentrations. The tested concentrations have been 30, 100, 300, 1000, 3000 and 10000 nM. Prior to injecting any compound, the surfaces were equilibrated by injecting running buffer over them in three separate pulses. The data collection rate was set to 10 Hz.
The raw sensorgrams of the compound injections were first subjected to reference subtraction (subtracting the signal from flow channel 1 and/or 3 from the signal from channels 2 and/or 4 respectively) and then blank subtraction (subtracting the signal from injecting DMSO controls from the reference subtracted data). The resulting double-referenced sensorgrams were then fitted using a 1:1 binding interaction model using the manufactures software package to extract kinetic- and affinity data. Active compounds have been defined by creating a detectable binding signal at the highest compound concentration ([…]) of 3 RUs. Kinetic- and affinity data on active compounds are only provided for those compounds where the binding signal at the highest compound concentration ([…]) is 50% of the theoretical maximum binding signal for a 1:1 binding interaction (Rmax, typically between 15-20 RUs) in order to enable a proper fitting of the data.

[4] = target: PCSK9 (Homo sapiens, UniProt Q8NBP7, G670E/V474I); assay: biochemical
Chain of PCSK9 (Q8NBP7 with tags, fused parts or gaps V474I/G670E): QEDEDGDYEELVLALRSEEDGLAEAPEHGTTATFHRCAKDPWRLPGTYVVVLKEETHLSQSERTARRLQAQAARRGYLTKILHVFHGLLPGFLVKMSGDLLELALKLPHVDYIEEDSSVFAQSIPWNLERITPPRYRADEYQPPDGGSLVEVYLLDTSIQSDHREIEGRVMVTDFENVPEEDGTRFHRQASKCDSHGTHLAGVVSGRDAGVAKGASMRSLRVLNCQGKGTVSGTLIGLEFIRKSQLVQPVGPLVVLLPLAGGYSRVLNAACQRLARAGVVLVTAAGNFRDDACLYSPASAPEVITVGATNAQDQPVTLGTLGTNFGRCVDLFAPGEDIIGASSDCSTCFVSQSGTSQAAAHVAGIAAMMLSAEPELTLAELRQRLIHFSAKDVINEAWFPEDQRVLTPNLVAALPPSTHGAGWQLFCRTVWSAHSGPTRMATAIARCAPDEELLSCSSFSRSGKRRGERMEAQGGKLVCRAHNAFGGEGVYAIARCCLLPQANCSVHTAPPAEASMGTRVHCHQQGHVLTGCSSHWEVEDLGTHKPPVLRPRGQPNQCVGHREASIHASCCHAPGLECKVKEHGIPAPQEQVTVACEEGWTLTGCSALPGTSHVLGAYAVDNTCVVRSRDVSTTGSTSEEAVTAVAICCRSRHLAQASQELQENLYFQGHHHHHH

Chain of GSK3β (Glycogen synthase kinase-3 beta) (P49841 whole entry): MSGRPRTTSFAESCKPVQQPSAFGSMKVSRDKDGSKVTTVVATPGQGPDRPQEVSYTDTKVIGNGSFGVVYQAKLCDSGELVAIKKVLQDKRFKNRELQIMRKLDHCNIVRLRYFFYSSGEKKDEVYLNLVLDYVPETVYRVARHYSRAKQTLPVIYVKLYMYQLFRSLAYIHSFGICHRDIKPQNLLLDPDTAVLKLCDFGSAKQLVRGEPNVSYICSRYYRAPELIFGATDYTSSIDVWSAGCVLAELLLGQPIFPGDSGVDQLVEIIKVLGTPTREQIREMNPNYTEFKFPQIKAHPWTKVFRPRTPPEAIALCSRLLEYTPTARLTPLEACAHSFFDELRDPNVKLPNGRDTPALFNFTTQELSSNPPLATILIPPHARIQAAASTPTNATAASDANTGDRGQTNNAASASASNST

SMILES	IC50 [1] [µM]	IC50 [2] [nM]	Kd [3] [nM]	IC50 [4] [nM]
O=c1ccccn1-c1ccc(N[C@H]2CC[C@H](Nc3cnc(Cl)cn3)C2)nc1 [Example 3, 6′-(((1S,3S)-3-((5-Chloropyrazin-2-yl)amino)cyclopentyl)amino)-2H-[1,3′-bipyridin]-2-one]	> 10	24600	39	40
CN1CCN(c2ccc(=O)n(-c3ccc(N[C@H]4CC[C@H](Nc5cnc(OC(F)F)cn5)C4)nc3)c2)CC1 [Example 81, 6′-(((1S,3S)-3-((5-(Difluoromethoxy)pyrazin-2-yl)amino)cyclopentyl)amino)-5-(4-methylpiperazin-1-yl)-2H-[1,3′-bipyridin]-2-one]	0.498	> 40000	66	202
Cc1cnc(N[C@H]2CC[C@H](Nc3ccc(-n4nc(C)ccc4=O)cn3)C2)cn1 [Example 231, 6-Methyl-2-(6-(((1S,3S)-3-((5-methylpyrazin-2-yl)amino)cyclopentyl)amino)pyridin-3-yl)pyridazin-3 (2H)-one]	> 10	> 40100	35	46
Cc1cnc(N[C@H]2CC[C@H](Nc3ccc(-n4nccc(C#N)c4=O)cn3)C2)cn1 [Example 278, 2-(6-(((1S,3S)-3-((5-Methylpyrazin-2-yl)amino)cyclopentyl)amino)pyridin-3-yl)-3-oxo-2,3-dihydropyridazine-4-carbonitrile]	> 10	> 40100	12	13
Cc1cncc(N[C@H]2CC[C@H](Nc3ccc(-n4ccccc4=O)cn3)C2)n1 [Example 141, 6′-(((1S,3S)-3-((6-Methylpyrazin-2-yl)amino)cyclopentyl)amino)-2H-[1,3′-bipyridin]-2-one]	> 10	> 40000	405	592
Cc1cnc(N[C@H]2CC[C@H](Nc3ccc(N4CC(=O)N(C)C4=O)cn3)C2)cn1 [Example 39, 3-Methyl-1-(6-(((1S,3S)-3-((5-methylpyrazin-2-yl)amino)cyclopentyl)amino)pyridin-3-yl)imidazolidine-2,4-dione]	> 10	> 40000	33	34
COc1cnc(N[C@H]2CC[C@H](Nc3ccc(-n4ccccc4=O)cn3)C2)cn1 [Example 140, 6′-(((1S,3S)-3-((5-Methoxypyrazin-2-yl)amino)cyclopentyl)amino)-2H-[1,3′-bipyridin]-2-one]		> 40000	81	309
N#Cc1cnc(N[C@H]2CC[C@H](Nc3ccc(-n4ccccc4=O)cn3)C2)cn1 [Example 5, 5-(((1S,3S)-3-((2-Oxo-2H-[1,3′-bipyridin]-6′-yl)amino)cyclopentyl)amino)pyrazine-2-carbonitrile]	0.713	18500	412	499
Nc1ccc2ncc(N[C@H]3CC[C@H](Nc4ccc(-n5ccccc5=O)cn4)C3)nc2n1 [Example 146, 6′-(((1S,3S)-3-((6-Aminopyrido[2,3-b]pyrazin-3-yl)amino)cyclopentyl)amino)-2H-[1,3′-bipyridin]-2-one]	> 10	> 40000	1500	1480
O=c1ccccn1-c1ccc(N[C@H]2CC[C@H](Nc3cnc(OC(F)(F)F)cn3)C2)nc1 [Example 111, 6′-(((1S,3S)-3-((5-(Trifluoromethoxy)pyrazin-2-yl)amino)cyclopentyl)amino)-2H-[1,3′-bipyridin]-2-one]	> 10	20800	128	149
Cc1nc(N[C@H]2CC[C@H](Nc3ccc(-n4ccccc4=O)cn3)C2)cnc1C#N [Example 1, 3-Methyl-5-(((1S,3S)-3-((2-oxo-2H-[1,3′-bipyridin]-6′-yl)amino)cyclopentyl)amino)pyrazine-2-carbonitrile]		> 40100	1700	2750
Cc1ncc(N[C@H]2CC[C@H](Nc3ccc(-n4cccc(C)c4=O)cn3)C2)nc1C [Example 18, 6′-(((1S,3S)-3-((5,6-Dimethylpyrazin-2-yl)amino)cyclopentyl)amino)-3-methyl-2H-[1,3′-bipyridin]-2-one]	> 10	> 40000	14	17
Cc1ncc(N[C@H]2CC[C@H](Nc3ccc(-n4ccccc4=O)cn3)C2)nc1C [Example 2, 6′-(((1S,3S)-3-((5,6-Dimethylpyrazin-2-yl)amino)cyclopentyl)amino)-2H-[1,3′-bipyridin]-2-one]	> 10	> 40000	64	112
O=c1ccccn1-c1ccc(N[C@H]2CC[C@H](Nc3cnc4c(F)cccc4n3)C2)nc1 [Example 145, 6′-(((1S,3S)-3-((5-Fluoroquinoxalin-2-yl)amino)cyclopentyl)amino)-2H-[1,3′-bipyridin]-2-one]	> 10	18500	637	960
Cc1ncc(N[C@H]2CC[C@H](Nc3ccc(N4C(=O)CN(C)C4=O)cn3)C2)nc1C [Example 22, 3-(6-(((1S,3S)-3-((5,6-Dimethylpyrazin-2-yl)amino)cyclopentyl)amino)pyridin-3-yl)-1-methylimidazolidine-2,4-dione]	> 10	> 40000	93	107
O=c1ccccn1-c1ccc(N[C@H]2CC[C@H](Nc3cnc4ccc(Cl)cc4n3)C2)nc1 [Example 139, 6′-(((1S,3S)-3-((7-Chloroquinoxalin-2-yl)amino)cyclopentyl)amino)-2H-[1,3′-bipyridin]-2-one]	0.292	4600	460	235
N#Cc1cncc(N[C@H]2CC[C@H](Nc3ccc(-n4ccccc4=O)cn3)C2)n1 [Example 142, 6-(((1S,3S)-3-((2-Oxo-2H-[1,3′-bipyridin]-6′-yl)amino)cyclopentyl)amino)pyrazine-2-carbonitrile]	0.764	> 35400	2420	1610
O=c1ccccn1-c1ccc(N[C@H]2CC[C@H](Nc3cnc(OC(F)F)cn3)C2)nc1 [Example 86, 6′-(((1S,3S)-3-((5-(Difluoromethoxy)pyrazin-2-yl)amino)cyclopentyl)amino)-2H-[1,3′-bipyridin]-2-one]	> 10	13400	64	73
CC(=O)c1cnc(N[C@H]2CC[C@H](Nc3ccc(-n4ccccc4=O)cn3)C2)cn1 [Example 6, 6′-(((1S,3S)-3-((5-Acetylpyrazin-2-yl)amino)cyclopentyl)amino)-2H-[1,3′-bipyridin]-2-one]		> 40100	863	1160
CN1CC(=O)N(c2ccc(N[C@H]3CC[C@H](Nc4cnc(Cl)cn4)C3)nc2)C1=O [Example 100, 3-(6-(((1S,3S)-3-((5-Chloropyrazin-2-yl)amino)cyclopentyl)amino)pyridin-3-yl)-1-methylimidazolidine-2,4-dione]	> 10	> 40100	45	28
